In patent US12685729B2, “Use of 2,3,5-substituted thiophene compound for enhancement of radiotherapy” (Pharos iBio Co., Ltd., priority 2018, dated 2026):

Columns and labels:
[1] = tested on: JIMT-1 cell line; test: Tumor volume in mice transplanted with JIMT-1 breast cancer cell line after PHI-101 and radiation; type: in vivo; details: JIMT-1 xenograft mice; PHI-101 20 mg/kg intraperitoneally 24 h and 3 h before and 24, 48, 72 h after 3 Gy 60Co γ-ray, repeated three times for 3 weeks; combination
Experimental: (§1) 6-week-old female Balb/c nu/nu mice (Orient Bio Inc.) and NOD SCID mice (Orient Bio Inc.) were prepared. The mice were acclimated for 1 week after purchase, and then tumor transplants were prepared. During the animal experiment, cages were replaced once a week, and drinking water and feed were often checked to ensure that they were always sufficiently supplied.
(§2) Each of the tumor cell lines shown in Table 1 below was cultured with DMEM (Dulbecco's Modified Eagle Medium) or RPMI-1640 in a 150-mm culture dish (SPL) under 5% CO2 at 37° C. Then, each tumor cell line was diluted to a density of 1×10^6 cells/100 μl using cold DPBS buffer (Welgene), and kept cold on ice until transplantation. […]
(§3) When each tumor cell line transplanted to the mice in Example 1-2 proliferated and the tumor begun to be visible, the lengths of the longest and shortest diameters of the tumor were measured using digital calipers (Mitutoyo). […]
(§4) The tumor volume was measured at intervals of 2 to 4 days, and was calculated using the following equation: V=½(L×W^2) • V=volume (mm^3) • L=length [mm], the longest diameter • W=width [mm], the shortest diameter
(§5) The measurement end time was determined based on when the average volume of the control tumor reached about 2,000 mm^3. The data of the measured tumor volume was first organized in Microsoft Excel, and plotted in GraphPad Prism. […]

[2] = tested on: JIMT-1 breast cancer cell line; test: Clonogenic assay after PHI-101 and radiation, JIMT-1; type: cell-based; details: PHI-101 0.1, 0.2 or 0.5 μM, 0, 1, 2 or 3 Gy 3 hours after treatment, colonies after 10 days
Experimental: (§6) Whether the PHI-101 compound can act as a radiotherapy sensitizer for breast cancer was evaluated using clonogenic assay.
(§7) Specifically, each of the breast cancer cell lines shown in Table 2 below was added to DMEM medium in a 60-mm dish at a density of 300 cells, and treated with PHI-101 at a concentration of 0.1, 0.2 or 0.5 μM. As a control, DMSO was used.
(§8) 3 hours after PHI-101 treatment, the cells were irradiated with radiation having an intensity of 0, 1, 2 or 3 Gy. Next, the cells were cultured under 5% CO2 at 37° C. for 10 days, and then the formed colonies were stained with 0.4% crystal violet. Then, the colonies were counted and the surviving fraction of the cells was calculated. The results of calculating the surviving fraction were normalized and fitted to a linear-quadratic model using Kaleidagraph version 351 (Synergy Software, Reading, PA).

[3] = tested on: FaDu cell line; test: Tumor volume in mice transplanted with FaDu head and neck cancer cell line after PHI-101 and radiation; type: in vivo; details: FaDu xenograft mice; PHI-101 20 mg/kg intraperitoneally 3 h before and 24, 48, 72, 96 h after 3 Gy 60Co γ-ray, repeated three times for 3 weeks; combination
Experimental: as §1, §2, §3, §4, §5

[4] = tested on: MDA-MB-468 breast cancer cell line; test: Clonogenic assay after PHI-101 and radiation, MDA-MB-468; type: cell-based; details: PHI-101 0.1, 0.2 or 0.5 μM, 0, 1, 2 or 3 Gy 3 hours after treatment, colonies after 10 days
Experimental: as §6, §7, §8

[5] = tested on: HCT116 cell line; test: Tumor volume in mice transplanted with HCT116 colorectal cancer cell line after PHI-101 and radiation; type: in vivo; details: HCT116 xenograft mice; PHI-101 20 mg/kg intraperitoneally 24 h and 3 h before and 24 h after 3 Gy X-ray, repeated twice at one-week interval; combination
Experimental: as §1, §2, §3, §4, §5

NC(=O)Nc1cc(C#Cc2cccc(F)c2)sc1C(=O)N[C@H]1CCCNC1 [PHI-101, (S)-5-((3-fluorophenyl)ethynyl)-N-(piperidin-3-yl)-3-ureido-thiophene-2-carboxamide]
tumor volume inhibited compared to when only irradiation was performed [1]: 20.53% | tumor volume reduced compared to that in the control group [1]: 27.32% | radiation sensitivity of the breast cancer cells (surviving fraction, linear-quadratic model) [2]: increased in a concentration-dependent manner | tumor volume inhibited compared to when only irradiation was performed [3]: 29.16% | tumor volume reduced compared to that in the control group [3]: 37.50% | radiation sensitivity of the breast cancer cells (surviving fraction, linear-quadratic model) [4]: increased in a concentration-dependent manner | tumor volume inhibited compared to when only irradiation was performed [5]: 36.60% | tumor volume reduced compared to that in the control group [5]: 49.58%
